Test results as given in ChEMBL document CHEMBL5346956, “Opportunities and Challenges for Inhibitors Targeting Citrate Transport and Metabolism in Drug Discovery” (J Med Chem, 2023).
One block for each compound: values may come before it.

Key:
[1] = target: T1, Na(+)/dicarboxylate cotransporter 3 (Homo sapiens, UniProt Q8WWT9); experiment: Inhibition of human SLC13A3 in HepG2 cells by measuring […] uptake; type: cell-based
T1 sequence (Q8WWT9 whole entry): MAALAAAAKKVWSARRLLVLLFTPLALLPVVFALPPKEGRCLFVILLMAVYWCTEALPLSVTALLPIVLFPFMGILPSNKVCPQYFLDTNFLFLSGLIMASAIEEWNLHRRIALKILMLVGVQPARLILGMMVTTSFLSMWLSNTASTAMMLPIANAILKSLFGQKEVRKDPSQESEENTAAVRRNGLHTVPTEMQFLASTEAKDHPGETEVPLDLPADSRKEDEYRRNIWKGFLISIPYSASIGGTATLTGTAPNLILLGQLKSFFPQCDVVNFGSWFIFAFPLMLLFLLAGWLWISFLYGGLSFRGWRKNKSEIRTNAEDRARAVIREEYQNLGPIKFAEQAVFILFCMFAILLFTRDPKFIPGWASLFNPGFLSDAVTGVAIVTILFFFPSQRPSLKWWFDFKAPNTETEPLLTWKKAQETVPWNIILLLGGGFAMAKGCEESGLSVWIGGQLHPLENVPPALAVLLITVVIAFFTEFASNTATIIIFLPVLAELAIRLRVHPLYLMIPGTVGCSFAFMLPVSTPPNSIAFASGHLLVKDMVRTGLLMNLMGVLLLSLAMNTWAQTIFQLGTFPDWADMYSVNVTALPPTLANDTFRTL

[2] = Inhibition of mouse mINDY in HEK293 cells; type: cell-based
[3] = Metabolic stability in rat liver microsomes assessed as half life; type: ADME, Microsome
ATP-citrate synthase [4] = target: T2, ATP-citrate synthase (Homo sapiens, UniProt P53396)
T2 sequence (P53396 whole entry): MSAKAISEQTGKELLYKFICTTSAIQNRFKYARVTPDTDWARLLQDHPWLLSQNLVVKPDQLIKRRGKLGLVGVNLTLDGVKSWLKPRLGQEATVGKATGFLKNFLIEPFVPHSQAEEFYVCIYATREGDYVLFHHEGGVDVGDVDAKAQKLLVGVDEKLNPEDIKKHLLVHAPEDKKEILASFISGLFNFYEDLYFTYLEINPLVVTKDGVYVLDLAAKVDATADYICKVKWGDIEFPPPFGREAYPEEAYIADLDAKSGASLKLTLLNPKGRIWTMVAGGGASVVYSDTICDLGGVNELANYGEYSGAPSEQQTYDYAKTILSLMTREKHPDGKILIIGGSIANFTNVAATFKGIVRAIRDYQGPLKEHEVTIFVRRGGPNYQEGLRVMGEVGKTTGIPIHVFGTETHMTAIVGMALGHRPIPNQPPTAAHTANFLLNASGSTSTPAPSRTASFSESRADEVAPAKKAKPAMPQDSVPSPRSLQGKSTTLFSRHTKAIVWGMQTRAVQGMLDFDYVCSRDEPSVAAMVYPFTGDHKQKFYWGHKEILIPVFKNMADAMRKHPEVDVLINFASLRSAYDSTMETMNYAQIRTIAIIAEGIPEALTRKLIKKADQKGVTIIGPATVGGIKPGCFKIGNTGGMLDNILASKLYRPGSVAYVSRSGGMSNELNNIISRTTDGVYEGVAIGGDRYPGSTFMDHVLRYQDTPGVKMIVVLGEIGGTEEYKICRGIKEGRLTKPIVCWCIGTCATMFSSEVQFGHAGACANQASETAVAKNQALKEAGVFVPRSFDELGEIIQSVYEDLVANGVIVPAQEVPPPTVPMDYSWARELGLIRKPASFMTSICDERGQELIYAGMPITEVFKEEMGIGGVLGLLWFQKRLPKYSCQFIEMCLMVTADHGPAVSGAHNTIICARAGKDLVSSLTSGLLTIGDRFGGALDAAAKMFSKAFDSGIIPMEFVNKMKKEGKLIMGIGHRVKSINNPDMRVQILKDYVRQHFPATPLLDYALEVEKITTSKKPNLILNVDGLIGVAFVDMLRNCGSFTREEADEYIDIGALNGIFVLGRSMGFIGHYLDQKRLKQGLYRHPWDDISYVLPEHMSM

ATP-citrate synthase [5] = target: T2, ATP-citrate synthase; experiment: Binding affinity to ACLY (unknown origin) assessed as inhibition constant
[6] = target: T3, Tricarboxylate transport protein, mitochondrial (Homo sapiens, UniProt P53007); experiment: Inhibition of SLC25A1 (unknown origin) at 1 uM relative to control
Target sequence in this assay (P53007 14-311 limits assumed): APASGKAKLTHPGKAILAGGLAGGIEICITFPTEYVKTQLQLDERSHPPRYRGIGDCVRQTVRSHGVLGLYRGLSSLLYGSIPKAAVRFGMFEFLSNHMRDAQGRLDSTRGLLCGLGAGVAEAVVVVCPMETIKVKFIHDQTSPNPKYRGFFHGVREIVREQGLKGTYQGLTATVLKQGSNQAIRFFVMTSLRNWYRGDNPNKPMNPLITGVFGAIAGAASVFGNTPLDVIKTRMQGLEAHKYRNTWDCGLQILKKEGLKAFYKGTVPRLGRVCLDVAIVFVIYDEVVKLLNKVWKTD

[7] = target: T3, Tricarboxylate transport protein, mitochondrial; experiment: Inhibition of human SLC25A1 at 1 uM relative to control
Target sequence in this assay (P53007 14-311 limits assumed): as above

[8] = target: T3, Tricarboxylate transport protein, mitochondrial; experiment: Binding affinity to human SLC25A1 assessed as inhibition constant
Target sequence in this assay (P53007 whole entry): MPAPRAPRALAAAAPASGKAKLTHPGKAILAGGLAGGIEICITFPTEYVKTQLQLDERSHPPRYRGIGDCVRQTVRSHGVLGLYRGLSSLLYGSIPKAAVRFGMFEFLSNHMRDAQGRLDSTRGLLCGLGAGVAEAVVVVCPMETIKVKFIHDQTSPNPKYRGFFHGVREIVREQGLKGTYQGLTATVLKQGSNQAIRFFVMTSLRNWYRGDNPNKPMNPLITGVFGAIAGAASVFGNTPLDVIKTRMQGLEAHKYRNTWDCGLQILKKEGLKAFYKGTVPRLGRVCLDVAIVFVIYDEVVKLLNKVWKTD

ATP-citrate synthase [9] = target: T4, ATP-citrate synthase (Rattus norvegicus, UniProt P16638); experiment: Binding affinity to rat ACLY assessed as inhibition constant measured after 20 mins
T4 sequence (P16638 whole entry): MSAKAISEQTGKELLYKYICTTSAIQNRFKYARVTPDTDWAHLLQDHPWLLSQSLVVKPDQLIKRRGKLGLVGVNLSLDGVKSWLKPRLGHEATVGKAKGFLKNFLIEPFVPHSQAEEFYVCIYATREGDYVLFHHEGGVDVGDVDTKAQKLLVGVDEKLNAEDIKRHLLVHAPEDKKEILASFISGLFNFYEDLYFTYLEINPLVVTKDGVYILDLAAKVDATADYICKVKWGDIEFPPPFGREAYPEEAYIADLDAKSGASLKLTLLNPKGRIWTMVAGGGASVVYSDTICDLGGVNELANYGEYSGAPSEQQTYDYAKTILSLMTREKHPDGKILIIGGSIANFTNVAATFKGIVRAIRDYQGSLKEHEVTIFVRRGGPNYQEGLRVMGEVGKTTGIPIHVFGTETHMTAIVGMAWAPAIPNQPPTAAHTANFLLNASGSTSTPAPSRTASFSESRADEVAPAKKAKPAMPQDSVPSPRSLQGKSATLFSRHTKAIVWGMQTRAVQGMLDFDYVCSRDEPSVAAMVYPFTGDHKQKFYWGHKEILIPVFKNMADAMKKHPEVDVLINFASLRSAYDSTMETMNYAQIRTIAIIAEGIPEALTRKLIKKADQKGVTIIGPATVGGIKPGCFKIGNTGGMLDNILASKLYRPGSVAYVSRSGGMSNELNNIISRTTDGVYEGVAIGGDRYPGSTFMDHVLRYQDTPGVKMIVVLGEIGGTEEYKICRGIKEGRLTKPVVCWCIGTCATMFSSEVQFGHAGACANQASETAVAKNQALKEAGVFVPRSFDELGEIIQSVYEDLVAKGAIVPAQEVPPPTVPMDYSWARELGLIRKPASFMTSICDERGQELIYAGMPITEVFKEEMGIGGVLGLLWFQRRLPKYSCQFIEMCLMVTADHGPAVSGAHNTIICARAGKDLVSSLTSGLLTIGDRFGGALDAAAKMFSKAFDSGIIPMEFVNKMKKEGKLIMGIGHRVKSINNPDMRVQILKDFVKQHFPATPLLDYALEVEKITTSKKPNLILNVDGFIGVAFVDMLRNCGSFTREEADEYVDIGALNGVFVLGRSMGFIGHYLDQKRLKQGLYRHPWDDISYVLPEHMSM

HeLa = experiment: Antiproliferative activity against human HeLa cells assessed as inhibition of cell growth measured after 24 hrs; type: functional, cell-based
[10] = target: Na(+)/citrate cotransporter (Homo sapiens, UniProt Q86YT5); experiment: Inhibition of recombinant human SLC13A5 in HEK293T cells; type: cell-based
Chain of Na(+)/citrate cotransporter (Q86YT5 whole entry): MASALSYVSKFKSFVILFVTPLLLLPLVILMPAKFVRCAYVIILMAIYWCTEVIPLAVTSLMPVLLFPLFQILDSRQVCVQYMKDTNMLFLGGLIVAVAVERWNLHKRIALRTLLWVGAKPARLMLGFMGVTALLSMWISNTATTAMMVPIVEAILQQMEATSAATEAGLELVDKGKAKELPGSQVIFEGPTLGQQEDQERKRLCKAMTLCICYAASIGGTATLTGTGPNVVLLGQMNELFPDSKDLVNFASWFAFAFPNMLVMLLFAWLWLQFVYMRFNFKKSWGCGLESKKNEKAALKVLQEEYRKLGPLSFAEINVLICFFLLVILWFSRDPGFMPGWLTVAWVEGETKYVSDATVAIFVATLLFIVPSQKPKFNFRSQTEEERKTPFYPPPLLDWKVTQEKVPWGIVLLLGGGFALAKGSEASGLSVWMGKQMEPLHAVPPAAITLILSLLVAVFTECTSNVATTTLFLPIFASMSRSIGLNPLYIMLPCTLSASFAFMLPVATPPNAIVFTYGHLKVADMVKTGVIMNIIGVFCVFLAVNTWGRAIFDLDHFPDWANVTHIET

ATP-citrate synthase [11] = target: T2, ATP-citrate synthase; remark: listed apart in the source
ATP-citrate synthase [12] = target: T2, ATP-citrate synthase; remark: listed apart in the source
in vitro = settings: human, liver microsomes

IC50 [1]: 0.16 µM
IC50 [2]: 0.18 µM
SMILES: O=C(Nc1cc(Cl)cc(C(F)(F)F)c1)OCCC(F)(F)F

half-life [3]: > 2.42 h
SMILES: [2H]C([2H])(CCCCC(C)(C)C(=O)O)C([2H])(O)C([2H])([2H])CCCCC(C)(C)C(=O)O

IC50 (ATP-citrate synthase [4]): 5.31 µM
SMILES: CC(C)(CCCC/C=C/CCCCCC(C)(C)C(=O)O)C(=O)O

half-life [3]: > 2.42 h
SMILES: [2H]C([2H])(CCCCC(C)(C)C(=O)O)C(O)C([2H])([2H])CCCCC(C)(C)C(=O)O

Ki (ATP-citrate synthase [5]): 1.2 µM
SMILES: O=C(O)CC(O)(CSCCCCCCc1ccc(Cl)cc1Cl)C(=O)O (stereo unspecified)

half-life [3]: > 2.42 h
SMILES: [2H]C(O)(CCCCCC(C(=O)O)(C([2H])([2H])[2H])C([2H])([2H])[2H])CCCCCC(C(=O)O)(C([2H])([2H])[2H])C([2H])([2H])[2H]

Ki (ATP-citrate synthase [5]): 1.2 µM
SMILES: O=C(O)CC(O)(CC(=O)CCCCCCc1ccc(Cl)cc1Cl)C(=O)O (stereo unspecified)

inhibition [6]: 84.7%
inhibition [7]: 84.7%
Ki [8]: 48 µM
SMILES: O=C(O)c1ccc(Cl)c(S(=O)(=O)Nc2cccc([N+](=O)[O-])c2)c1

Ki (ATP-citrate synthase [5]): 1.2 µM
SMILES: O=C(O)CC(CSCCCCCCc1ccc(Cl)cc1Cl)C(=O)O (stereo unspecified)

inhibition [6]: 95%
SMILES: O=C(O)c1cccc(C(=O)O)c1C(=O)O

Ki (ATP-citrate synthase [9]): 1 µM
SMILES: O=C(O)C[C@@]1(O)C[C@@H](Cc2ccc(Cl)cc2Cl)OC1=O

IC50 (HeLa): 0.5 µM
SMILES: O=c1c(O)c(-c2ccc(O)cc2)oc2c(O)c(O)cc(O)c12 [HERBACETIN]

IC50 [10]: < 0.05 µM
IC50 [1]: < 0.05 µM
SMILES: Cc1nc(OC(F)F)ccc1C(C)N1CCc2c(C#N)c(Cl)nc(NCC#N)c2C1 (stereo unspecified)

half-life [3]: > 2.42 h
SMILES: [2H]C(O)(CCCCCC(C)(C)C(=O)O)CCCCCC(C)(C)C(=O)O

Ki (ATP-citrate synthase [5]): 1 µM
SMILES: O=C(O)C[C@](O)(C[C@H](O)CCCCCCc1ccc(Cl)cc1Cl)C(=O)O

SMILES: C[C@@H]1C[C@H]2O[C@@H]2/C=C\C=C\C(=O)Cc2c(Cl)c(O)cc(O)c2C(=O)O1 [RADICICOL]
Ki (ATP-citrate synthase [5]): 13 µM

Ki (ATP-citrate synthase [5]): 1.2 µM
SMILES: O=C(O)CC(O)(CCCCCCCCc1ccc(Cl)cc1Cl)C(=O)O (stereo unspecified)

SMILES: COC(=O)c1cc(Cl)c(O)c(S(=O)(=O)Nc2cc(-c3ccccc3)c(F)cc2F)c1
Ki (ATP-citrate synthase [5]): 0.007 µM
Kd (ATP-citrate synthase [11]): 0.0022 µM
IC50 (ATP-citrate synthase [12]): 0.0021 µM
half-life (in vitro): 0.056 h

half-life (in vitro): 8.85 h
SMILES: O=C1NCc2ccccc2-c2cc(c(F)cc2F)NS(=O)(=O)c2cc1cc(Cl)c2O
